Experimental data reported in the kinase profiling compilation of Christmann-Franck et al. (2016).

What was measured:
Assay in all cases: radiometric filter-binding kinase assay
MAPK9 (human) = MAPK9 (human) (UniProt P45984)
CAMKK2 (human) = CAMKK2 (human) (UniProt Q96RR4)
ERBB4 (human) = ERBB4 (human) (UniProt Q15303)
BRSK2 (human) = BRSK2 (human) (UniProt Q8IWQ3)
PAK7 (human) = PAK7 (human) (UniProt Q9P286)
SYK (human) = SYK (human) (UniProt P43405)
MAP3K5 (human) = MAP3K5 (human) (UniProt Q99683)
PRKCZ (human) = PRKCZ (human) (UniProt Q05513)
PHKG1 (human) = PHKG1 (human) (UniProt Q16816)
EEF2K (human) = EEF2K (human) (UniProt O00418)
EEF2K (human), sequence (O00418 whole entry, looked up): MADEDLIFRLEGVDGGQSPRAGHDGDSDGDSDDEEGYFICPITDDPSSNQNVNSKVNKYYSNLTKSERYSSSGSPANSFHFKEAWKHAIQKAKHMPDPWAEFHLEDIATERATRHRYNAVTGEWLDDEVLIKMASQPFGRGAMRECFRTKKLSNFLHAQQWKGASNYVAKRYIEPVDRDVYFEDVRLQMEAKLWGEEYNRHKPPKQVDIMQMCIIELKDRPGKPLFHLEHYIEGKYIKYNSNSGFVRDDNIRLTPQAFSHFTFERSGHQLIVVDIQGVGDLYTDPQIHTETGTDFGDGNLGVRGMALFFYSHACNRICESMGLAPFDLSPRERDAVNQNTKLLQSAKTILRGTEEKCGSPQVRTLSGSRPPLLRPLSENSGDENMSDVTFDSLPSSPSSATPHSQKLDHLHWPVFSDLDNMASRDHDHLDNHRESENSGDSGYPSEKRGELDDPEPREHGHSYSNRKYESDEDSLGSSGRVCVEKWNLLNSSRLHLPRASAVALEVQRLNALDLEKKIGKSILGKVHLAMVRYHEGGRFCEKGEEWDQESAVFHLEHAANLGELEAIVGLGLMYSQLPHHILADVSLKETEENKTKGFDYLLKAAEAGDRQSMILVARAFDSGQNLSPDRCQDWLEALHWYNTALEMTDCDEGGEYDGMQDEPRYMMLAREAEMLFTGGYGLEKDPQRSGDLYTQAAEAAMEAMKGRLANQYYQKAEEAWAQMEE

MAPK12 (human) = MAPK12 (human) (UniProt P53778)
MAP2K2 (human) = MAP2K2 (human) (UniProt P36507)
MAP2K2 (human), sequence (P36507 whole entry, looked up): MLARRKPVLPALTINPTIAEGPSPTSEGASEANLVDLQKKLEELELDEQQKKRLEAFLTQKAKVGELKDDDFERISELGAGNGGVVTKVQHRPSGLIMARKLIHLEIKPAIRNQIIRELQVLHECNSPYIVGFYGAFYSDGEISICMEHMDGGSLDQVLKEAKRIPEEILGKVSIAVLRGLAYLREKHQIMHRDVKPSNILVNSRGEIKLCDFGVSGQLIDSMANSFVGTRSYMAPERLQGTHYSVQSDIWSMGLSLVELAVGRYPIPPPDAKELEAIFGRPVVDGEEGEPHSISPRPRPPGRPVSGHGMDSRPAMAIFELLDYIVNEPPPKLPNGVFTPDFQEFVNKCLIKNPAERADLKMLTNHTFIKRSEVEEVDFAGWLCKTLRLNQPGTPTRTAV

PIM2 (human) = PIM2 (human) (UniProt Q9P1W9)
PIM2 (human), sequence (Q9P1W9 whole entry, looked up): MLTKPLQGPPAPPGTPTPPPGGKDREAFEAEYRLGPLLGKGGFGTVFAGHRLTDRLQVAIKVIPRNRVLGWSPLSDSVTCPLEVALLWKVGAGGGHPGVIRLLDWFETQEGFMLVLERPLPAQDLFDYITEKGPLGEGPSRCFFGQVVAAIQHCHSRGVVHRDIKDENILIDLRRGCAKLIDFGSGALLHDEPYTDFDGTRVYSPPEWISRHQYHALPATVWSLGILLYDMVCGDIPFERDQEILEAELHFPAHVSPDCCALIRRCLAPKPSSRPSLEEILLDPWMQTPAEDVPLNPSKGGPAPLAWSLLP

BRSK1 (human) = BRSK1 (human) (UniProt Q8TDC3)
BRSK1 (human), sequence (Q8TDC3 whole entry, looked up): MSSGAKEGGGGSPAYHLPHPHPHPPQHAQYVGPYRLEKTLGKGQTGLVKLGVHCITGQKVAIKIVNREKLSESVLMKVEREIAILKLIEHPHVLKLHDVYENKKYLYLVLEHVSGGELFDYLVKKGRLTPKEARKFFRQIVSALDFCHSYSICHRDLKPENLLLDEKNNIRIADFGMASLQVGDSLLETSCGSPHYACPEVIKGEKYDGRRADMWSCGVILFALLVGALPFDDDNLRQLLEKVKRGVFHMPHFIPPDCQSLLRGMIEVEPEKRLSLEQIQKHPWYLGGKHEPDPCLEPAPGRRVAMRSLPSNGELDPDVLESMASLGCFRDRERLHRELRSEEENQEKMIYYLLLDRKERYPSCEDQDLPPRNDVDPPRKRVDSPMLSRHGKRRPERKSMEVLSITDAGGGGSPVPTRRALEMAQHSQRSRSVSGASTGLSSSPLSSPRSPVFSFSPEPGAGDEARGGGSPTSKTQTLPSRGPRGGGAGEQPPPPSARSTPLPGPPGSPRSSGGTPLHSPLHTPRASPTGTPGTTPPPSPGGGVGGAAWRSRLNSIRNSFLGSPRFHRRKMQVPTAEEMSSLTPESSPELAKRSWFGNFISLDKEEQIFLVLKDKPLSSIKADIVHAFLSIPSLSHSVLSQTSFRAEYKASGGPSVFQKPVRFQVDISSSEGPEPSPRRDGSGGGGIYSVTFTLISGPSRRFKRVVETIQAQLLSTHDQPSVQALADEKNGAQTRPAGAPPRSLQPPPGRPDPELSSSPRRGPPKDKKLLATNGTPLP

MKNK1 (human) = MKNK1 (human) (UniProt Q9BUB5)
MAPK13 (human) = MAPK13 (human) (UniProt O15264)
FGFR1 (human) = FGFR1 (human) (UniProt P11362)
STK3 (human) = STK3 (human) (UniProt Q13188)
STK3 (human), sequence (Q13188 whole entry, looked up): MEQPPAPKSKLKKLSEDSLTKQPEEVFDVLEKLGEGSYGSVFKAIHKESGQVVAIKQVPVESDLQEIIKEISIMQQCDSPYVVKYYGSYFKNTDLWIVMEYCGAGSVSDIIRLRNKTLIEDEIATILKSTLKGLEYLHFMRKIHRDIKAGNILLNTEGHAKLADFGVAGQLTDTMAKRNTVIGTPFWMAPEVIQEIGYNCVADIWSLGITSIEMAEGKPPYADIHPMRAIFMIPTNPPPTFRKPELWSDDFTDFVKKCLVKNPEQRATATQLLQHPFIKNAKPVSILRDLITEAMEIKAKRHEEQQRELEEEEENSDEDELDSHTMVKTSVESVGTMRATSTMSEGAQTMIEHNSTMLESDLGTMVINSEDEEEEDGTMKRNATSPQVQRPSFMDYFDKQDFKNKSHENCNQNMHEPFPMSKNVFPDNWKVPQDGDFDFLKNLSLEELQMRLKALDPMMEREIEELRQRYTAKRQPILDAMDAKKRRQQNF

MARK1 (human) = MARK1 (human) (UniProt Q9P0L2)
MARK1 (human), sequence (Q9P0L2 whole entry, looked up): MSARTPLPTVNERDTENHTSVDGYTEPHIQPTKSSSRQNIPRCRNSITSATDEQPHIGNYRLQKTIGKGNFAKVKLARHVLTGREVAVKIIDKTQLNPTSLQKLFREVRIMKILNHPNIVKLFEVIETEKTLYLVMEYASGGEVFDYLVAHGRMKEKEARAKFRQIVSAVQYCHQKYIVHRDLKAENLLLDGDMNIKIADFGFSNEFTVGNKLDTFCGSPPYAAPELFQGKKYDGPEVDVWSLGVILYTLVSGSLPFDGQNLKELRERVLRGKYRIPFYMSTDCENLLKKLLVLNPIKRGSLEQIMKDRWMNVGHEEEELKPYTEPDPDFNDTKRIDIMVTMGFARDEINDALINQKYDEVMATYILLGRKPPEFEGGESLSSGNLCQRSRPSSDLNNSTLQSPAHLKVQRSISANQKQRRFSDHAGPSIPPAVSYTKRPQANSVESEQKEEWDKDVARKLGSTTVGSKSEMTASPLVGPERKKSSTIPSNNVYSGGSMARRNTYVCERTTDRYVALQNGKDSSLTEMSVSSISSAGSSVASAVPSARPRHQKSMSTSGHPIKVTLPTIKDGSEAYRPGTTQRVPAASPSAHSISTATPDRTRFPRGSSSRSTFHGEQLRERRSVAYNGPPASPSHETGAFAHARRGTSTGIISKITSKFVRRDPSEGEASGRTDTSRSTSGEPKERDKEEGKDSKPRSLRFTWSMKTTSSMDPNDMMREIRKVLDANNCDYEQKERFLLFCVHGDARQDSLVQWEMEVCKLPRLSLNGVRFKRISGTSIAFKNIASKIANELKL

DAPK1 (human) = DAPK1 (human) (UniProt P53355)
HIPK3 (human) = HIPK3 (human) (UniProt Q9H422)
PRKAA1 or PRKAA2 (rat) = conditions: accession and sequence are those of the human protein
DYRK1A (human) = DYRK1A (human) (UniProt Q13627)
PRKACA (human) = PRKACA (human) (UniProt P17612)
EPHB4 (human) = EPHB4 (human) (UniProt P54760)
MAPK3 (human) = MAPK3 (human) (UniProt P27361)
MAPKAPK2 (human) = MAPKAPK2 (human) (UniProt P49137)
IKBKE (human) = IKBKE (human) (UniProt Q14164)
IKBKE (human), sequence (Q14164 whole entry, looked up): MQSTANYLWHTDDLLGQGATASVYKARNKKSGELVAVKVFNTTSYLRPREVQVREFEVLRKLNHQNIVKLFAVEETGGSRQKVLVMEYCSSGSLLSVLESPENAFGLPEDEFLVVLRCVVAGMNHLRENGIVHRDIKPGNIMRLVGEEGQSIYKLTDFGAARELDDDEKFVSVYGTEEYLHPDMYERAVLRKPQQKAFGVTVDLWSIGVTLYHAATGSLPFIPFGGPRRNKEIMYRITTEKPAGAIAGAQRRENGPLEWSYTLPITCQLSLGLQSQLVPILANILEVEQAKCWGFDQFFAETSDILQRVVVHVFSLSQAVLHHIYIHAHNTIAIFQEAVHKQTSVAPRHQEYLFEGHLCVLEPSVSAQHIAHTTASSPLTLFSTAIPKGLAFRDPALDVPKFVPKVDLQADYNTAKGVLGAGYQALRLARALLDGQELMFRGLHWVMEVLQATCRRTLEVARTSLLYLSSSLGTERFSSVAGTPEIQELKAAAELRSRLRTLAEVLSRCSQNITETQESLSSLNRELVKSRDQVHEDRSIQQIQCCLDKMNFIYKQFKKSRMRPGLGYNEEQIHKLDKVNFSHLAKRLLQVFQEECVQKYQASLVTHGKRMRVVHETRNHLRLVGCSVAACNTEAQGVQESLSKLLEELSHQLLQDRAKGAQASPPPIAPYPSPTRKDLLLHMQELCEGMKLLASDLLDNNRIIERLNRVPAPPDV

IGF1R (human) = IGF1R (human) (UniProt P08069)
PIM3 (human) = PIM3 (human) (UniProt Q86V86)
GSK3B (human) = GSK3B (human) (UniProt P49841)
PIM1 (human) = PIM1 (human) (UniProt P11309)
MAPKAPK5 (human) = MAPKAPK5 (human) (UniProt Q8IW41)
MAPKAPK5 (human), sequence (Q8IW41 whole entry, looked up): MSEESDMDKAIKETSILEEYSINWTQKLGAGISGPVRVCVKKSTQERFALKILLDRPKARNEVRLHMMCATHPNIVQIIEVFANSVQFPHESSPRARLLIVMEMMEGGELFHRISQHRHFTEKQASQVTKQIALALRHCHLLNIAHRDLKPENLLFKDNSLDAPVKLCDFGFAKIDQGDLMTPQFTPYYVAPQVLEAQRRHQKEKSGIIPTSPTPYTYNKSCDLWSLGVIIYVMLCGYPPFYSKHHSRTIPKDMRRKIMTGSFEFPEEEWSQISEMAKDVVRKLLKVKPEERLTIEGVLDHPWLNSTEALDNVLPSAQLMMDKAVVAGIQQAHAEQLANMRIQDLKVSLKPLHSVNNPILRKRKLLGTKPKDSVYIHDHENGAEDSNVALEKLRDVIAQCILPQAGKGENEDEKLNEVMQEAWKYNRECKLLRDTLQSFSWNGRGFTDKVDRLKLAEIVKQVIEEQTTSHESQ

MAP2K6 (human) = MAP2K6 (human) (UniProt P52564)
MELK (human) = MELK (human) (UniProt Q14680)
[1] = tested on: SGK1 (human), O00141 [S422D]; conditions: compound 10.0 µM

residual activity (MAPK9 (human); compound 0.1 µM): 91% | residual activity (MAPK9 (human); compound 10.0 µM): 35% | residual activity (CAMKK2 (human); compound 0.1 µM): 85% | residual activity (CAMKK2 (human); compound 1.0 µM): 99% | residual activity (CAMKK2 (human); compound 10.0 µM): 62% | residual activity (ERBB4 (human); compound 0.1 µM): 83% | residual activity (ERBB4 (human); compound 10.0 µM): 73% | residual activity (BRSK2 (human); compound 0.1 µM): 67% | residual activity (BRSK2 (human); compound 1.0 µM): 26% | residual activity (BRSK2 (human); compound 10.0 µM): 8% | residual activity (PAK7 (human); compound 0.1 µM): 97% | residual activity (PAK7 (human); compound 1.0 µM): 90% | residual activity (PAK7 (human); compound 10.0 µM): 71% | residual activity (SYK (human); compound 0.1 µM): 90% | residual activity (SYK (human); compound 1.0 µM): 104% | residual activity (SYK (human); compound 10.0 µM): 92% | residual activity (MAP3K5 (human); compound 0.1 µM): 98% | residual activity (MAP3K5 (human); compound 1.0 µM): 84% | residual activity (MAP3K5 (human); compound 10.0 µM): 21% | residual activity (PRKCZ (human); compound 0.1 µM): 88% | residual activity (PRKCZ (human); compound 1.0 µM): 109% | residual activity (PRKCZ (human); compound 10.0 µM): 84% | residual activity (PHKG1 (human); compound 0.1 µM): 82% | residual activity (PHKG1 (human); compound 1.0 µM): 29% | residual activity (PHKG1 (human); compound 10.0 µM): 5% | residual activity (EEF2K (human); compound 0.1 µM): 105% | residual activity (EEF2K (human); compound 1.0 µM): 111% | residual activity (EEF2K (human); compound 10.0 µM): 87% | residual activity (MAPK12 (human); compound 0.1 µM): 95% | residual activity (MAPK12 (human); compound 1.0 µM): 96% | residual activity (MAPK12 (human); compound 10.0 µM): 58% | residual activity (MAP2K2 (human); compound 0.1 µM): 106% | residual activity (MAP2K2 (human); compound 1.0 µM): 123% | residual activity (MAP2K2 (human); compound 10.0 µM): 115% | residual activity (PIM2 (human); compound 0.1 µM): 99% | residual activity (PIM2 (human); compound 1.0 µM): 102% | residual activity (PIM2 (human); compound 10.0 µM): 99% | residual activity (BRSK1 (human); compound 0.1 µM): 96% | residual activity (BRSK1 (human); compound 1.0 µM): 73% | residual activity (BRSK1 (human); compound 10.0 µM): 26% | residual activity (MKNK1 (human); compound 0.1 µM): 95% | residual activity (MKNK1 (human); compound 1.0 µM): 38% | residual activity (MKNK1 (human); compound 10.0 µM): 7% | residual activity (MAPK13 (human); compound 0.1 µM): 89% | residual activity (MAPK13 (human); compound 1.0 µM): 93% | residual activity (MAPK13 (human); compound 10.0 µM): 50% | residual activity (FGFR1 (human); compound 0.1 µM): 110% | residual activity (FGFR1 (human); compound 1.0 µM): 85% | residual activity (FGFR1 (human); compound 10.0 µM): 82% | residual activity (STK3 (human); compound 0.1 µM): 103% | residual activity (STK3 (human); compound 1.0 µM): 110% | residual activity (STK3 (human); compound 10.0 µM): 98% | residual activity (MARK1 (human); compound 0.1 µM): 51% | residual activity (MARK1 (human); compound 1.0 µM): 94% | residual activity (MARK1 (human); compound 10.0 µM): 76% | residual activity (DAPK1 (human); compound 0.1 µM): 102% | residual activity (DAPK1 (human); compound 1.0 µM): 93% | residual activity (DAPK1 (human); compound 10.0 µM): 40% | residual activity (HIPK3 (human); compound 0.1 µM): 95% | residual activity (HIPK3 (human); compound 1.0 µM): 92% | residual activity (HIPK3 (human); compound 10.0 µM): 101% | residual activity (PRKAA1 or PRKAA2 (rat); compound 0.1 µM): 97% | residual activity (PRKAA1 or PRKAA2 (rat); compound 1.0 µM): 61% | residual activity (PRKAA1 or PRKAA2 (rat); compound 10.0 µM): 20% | residual activity (DYRK1A (human); compound 0.1 µM): 97% | residual activity (DYRK1A (human); compound 1.0 µM): 63% | residual activity (DYRK1A (human); compound 10.0 µM): 21% | residual activity (PRKACA (human); compound 0.1 µM): 105% | residual activity (PRKACA (human); compound 1.0 µM): 109% | residual activity (PRKACA (human); compound 10.0 µM): 93% | residual activity (EPHB4 (human); compound 0.1 µM): 103% | residual activity (EPHB4 (human); compound 10.0 µM): 91% | residual activity (MAPK3 (human); compound 0.1 µM): 78% | residual activity (MAPK3 (human); compound 1.0 µM): 34% | residual activity (MAPK3 (human); compound 10.0 µM): 10% | residual activity (MAPKAPK2 (human); compound 0.1 µM): 99% | residual activity (MAPKAPK2 (human); compound 1.0 µM): 72% | residual activity (MAPKAPK2 (human); compound 10.0 µM): 22% | residual activity (IKBKE (human); compound 0.1 µM): 98% | residual activity (IKBKE (human); compound 1.0 µM): 87% | residual activity (IKBKE (human); compound 10.0 µM): 48% | residual activity (IGF1R (human); compound 0.1 µM): 97% | residual activity (IGF1R (human); compound 1.0 µM): 102% | residual activity (IGF1R (human); compound 10.0 µM): 99% | residual activity (PIM3 (human); compound 0.1 µM): 97% | residual activity (PIM3 (human); compound 1.0 µM): 58% | residual activity (PIM3 (human); compound 10.0 µM): 42% | residual activity (GSK3B (human); compound 0.1 µM): 86% | residual activity (GSK3B (human); compound 1.0 µM): 82% | residual activity (GSK3B (human); compound 10.0 µM): 51% | residual activity (PIM1 (human); compound 0.1 µM): 114% | residual activity (PIM1 (human); compound 1.0 µM): 98% | residual activity (PIM1 (human); compound 10.0 µM): 65% | residual activity (MAPKAPK5 (human); compound 0.1 µM): 109% | residual activity (MAPKAPK5 (human); compound 1.0 µM): 97% | residual activity (MAPKAPK5 (human); compound 10.0 µM): 65% | residual activity (MAP2K6 (human); compound 0.1 µM): 92% | residual activity (MAP2K6 (human); compound 1.0 µM): 29% | residual activity (MAP2K6 (human); compound 10.0 µM): 16% | residual activity (MELK (human); compound 0.1 µM): 108% | residual activity (MELK (human); compound 1.0 µM): 78% | residual activity (MELK (human); compound 10.0 µM): 40% | residual activity [1]: 90%
SMILES: NC(=O)c1cc(-c2ccnc(NC3CCCCC3)c2)nc(N2CCNCC2)c1
